Data set [1] can be described thus: molar enthalpy of vaporization or sublimation. To be noted: 298.15 K, Calvet Microcalorimeter.
For data set [2] the following is noted: Crystal; DTA.

Molecules are shown by their SMILES. ± gives the expanded uncertainty stated by the source.

With `CC(C)(C)c1cc(C(C)(C)C)nc(C(C)(C)C)c1` [pyridine, 2,4,6-tris(1,1-dimethylethyl)-], the molar enthalpy in data set [1] (Crystal) stood at 18.7 ± 0.813 kcal/mol. Moreover, in data set [2], the Normal melting temperature turned out to be 68 ± 2 °C.
As for `CC(C)(C)c1ccncc1` [4-(1,1-dimethylethyl)pyridine], the molar enthalpy in data set [1] (Liquid) amounted to 13 ± 0.621 kcal/mol.
The same measure, in the same setting: then `CC(C)(C)c1cccc(C(C)(C)C)n1` [2,6-di-tert-butylpyridine], with 13.5 ± 0.574 kcal/mol.

These data come from the NIST ThermoML archive (doi:10.1021/je800155q).
